The values below come from patent US11548868B2, “Heterocyclic compounds, compositions comprising heterocyclic compound, and methods of use thereof” (JS INNOPHARM (SHANGHAI) LTD, priority 2017, dated 2023).

What is called IC50 is the concentration that inhibits the measured activity by half. Read a low IC50 as greater potency in that assay.

For assay [1], the target named is T1, TDO2 in A172 cancer cells (Homo sapiens, UniProt P48775).
T1 construct: endogenous in cells; host or cells: A172 cancer cells
T1 sequence (P48775 whole entry): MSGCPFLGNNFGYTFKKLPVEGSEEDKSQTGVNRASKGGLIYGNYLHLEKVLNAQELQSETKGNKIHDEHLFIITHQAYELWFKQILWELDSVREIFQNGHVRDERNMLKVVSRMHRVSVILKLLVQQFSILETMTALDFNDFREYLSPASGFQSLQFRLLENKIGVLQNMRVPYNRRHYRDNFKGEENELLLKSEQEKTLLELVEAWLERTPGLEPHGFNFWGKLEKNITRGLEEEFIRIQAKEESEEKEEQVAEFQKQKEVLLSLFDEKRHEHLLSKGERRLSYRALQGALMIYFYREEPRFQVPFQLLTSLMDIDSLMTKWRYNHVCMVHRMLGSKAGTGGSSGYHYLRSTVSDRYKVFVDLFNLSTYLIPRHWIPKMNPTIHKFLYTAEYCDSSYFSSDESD
Nature of the assay: TDO2 Cellular Assay (kynurenine production in A172 cancer cells). In kind it is cell-based. To be noted: L-Trp 1 mM, 24 hours incubation, kynurenine at 490 nm. As for the experimental part:
A172 cancer cells (3×10^4 per well) in 85 μL DMEM medium containing 10% FBS were seeded in a 96-well plate and incubated at 95% humidity and 5% CO2 at 37° C. for overnight. On the next day, L-Trp solution (10 μL, 1 mM final concentration) and serial dilutions of the test compounds and DMEM medium resulting in a total final volume of 100 μL each well. The test compounds were dissolved in DMSO and successively diluted with pH7.5 butter (with final DMSO concentration of 0.25%) resulting in final concentrations of the test compounds ranging from 0 to 25 μM (0, 2.5, 7.5, 25, 75, 250, 750, 2500, 7500, & 25000 nM). After 24 hours of incubation, 70 uL of the supernatant per well was transferred to a new 96 well plate. 8 μL of trichloroacetic acid (6.1 N) was mixed into each well and incubated at 50° C. for 30 min to hydrolyze N-formylkynurenine to kynurenine. The reaction mixture was then centrifuged for 10 min at 2500 RPM to remove sediments. 50 μL of the supernatant per well was transferred to another 96 well plate and mixed with 50 μL of 2% (w/v) p-dimethylaminobenzaldehyde in acetic acid. The yellow color derived from kynurenine was measured at 490 nm using a microplate reader. Percent inhibition of the test compounds was determined by measuring the decrease in kynurenine as compared to the control of DMSO vehicle, which was calculated by formula of (WC−WT)/WC, where WC is the mean absorbance of the control well minus blank well; WT is the mean absorbance of the test well minus the blank well. Data was analyzed by GraphPad Prism 5 and the IC50 values were obtained by non-linear regression.
(§1) The IC50 values of for Compounds disclosed are listed in Table 2, A′: ≤0.5 μM; B′: >0.5 μM and ≤1 μM; C′: >1.0 μM and ≤5 uM; and D′: >5 μM.

Assay [2] concerns the target T2, IDO1 in Hela cancer cells (Homo sapiens, UniProt P14902).
T2 construct: endogenous in cells; host or cells: Hela cancer cells stimulated with human IFN-γ
Nature of the assay: IDO1 Cellular Assay (kynurenine production in IFN-γ stimulated Hela cancer cells). In kind it is cell-based. To be noted: human IFN-γ 50 ng/mL, 48 hours incubation, kynurenine at 490 nm. As for the experimental part: Hela cancer cells (5×10^3 per well) with 85 μL DMEM medium containing 10% FBS were seeded in a 96-well plate and incubated at 95% humidity and 5% CO2 at 37° C. for 24 hours. human IFN-γ (10 μL, 50 ng/mL final concentration) and 5 μL serial dilutions of the test compounds were added into each well. The test compounds were dissolved in DMSO, and successively diluted with pH7.5 buffer (with final DMSO concentration of 0.25%) resulting in final concentrations of the test compounds ranging from 0 to 25 μM (0, 2.5, 7.5, 25, 75, 250, 750, 2500, 7500, & 25000 nM). After 48 hours of incubation, 70 uL of the supernatant per well was transferred to a new 96 well plate. Trichloroacetic acid (6.1 N, 8 μL) was mixed into each well and incubated at 50° C. for 30 min to hydrolyze N-formylkynurenine produced by IDO to kynurenine. The reaction mixture was then centrifuged for 10 min at 2500 RPM to remove sediments. 50 μL of the supernatant per well was transferred to another 96 well plate and mixed with 50 uL of 2% (w/v) p-dimethylaminobenzaldehyde in acetic acid. The yellow color derived from kynurenine was measured at 490 nm using a microplate reader. Percent inhibition of the test compounds was determined by measuring the decrease in kynurenine as compared to the control of DMSO vehicle, which was calculated by formula of (WC-WT)/WC, where WC is the mean absorbance of the control well minus blank well; WT is the mean absorbance of the test well minus the blank well. Data was analyzed by GraphPad Prism 5 and the IC50 values were obtained by non-linear regression.
as §1

T2 sequence (P14902 whole entry): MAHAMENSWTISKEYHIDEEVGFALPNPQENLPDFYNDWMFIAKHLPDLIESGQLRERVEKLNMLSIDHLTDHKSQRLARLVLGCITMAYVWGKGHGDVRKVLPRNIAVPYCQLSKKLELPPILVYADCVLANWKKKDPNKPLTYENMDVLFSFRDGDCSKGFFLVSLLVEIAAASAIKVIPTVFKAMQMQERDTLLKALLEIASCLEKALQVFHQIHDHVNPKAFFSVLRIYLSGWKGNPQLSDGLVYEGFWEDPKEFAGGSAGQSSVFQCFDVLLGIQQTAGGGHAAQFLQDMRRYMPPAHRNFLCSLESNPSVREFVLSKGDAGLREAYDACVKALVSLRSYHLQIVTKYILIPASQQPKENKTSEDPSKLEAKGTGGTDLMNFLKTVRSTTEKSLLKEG

Regarding `CS(=O)(=O)N[C@H]1C[C@@H]2C[C@@](O)(c3cc(Cl)cc4[nH]ncc34)C[C@@H]2C1` [Example 3, N-((2r,3aR,5r,6aS)-5-(6-chloro-1H-indazol-4-yl)-5-hydroxyoctahydropentalen-2-yl)methanesulfonamide], the IC50 was ≤ 500 nM in assay [1] and > 5 µM in assay [2].

As for `O=C(N[C@H]1[C@@H]2C[C@@](O)(c3cc(Cl)cc4[nH]ncc34)C[C@@H]21)c1cncc(F)c1` [Example 173, N-((1R,3r,5S,6r)-3-(6-chloro-1H-indazol-4-yl)-3-hydroxybicyclo[3.1.0]hexan-6-yl)-5-fluoronicotinamide], the IC50 in assay [1] was ≤ 500 nM; in assay [2], 0.5 to 1 µM.

For the compound `O=C(N[C@H]1[C@@H]2C[C@@](O)(c3cc(Cl)cc4[nH]ncc34)C[C@@H]21)c1cc(F)cc(Cl)c1` [Example 152, 3-chloro-N-((1R,3r,5S,6r)-3-(6-chloro-1H-indazol-4-yl)-3-hydroxybicyclo[3.1.0]hexan-6-yl)-5-fluorobenzamide], the figures for the concentration for half-maximal inhibition (IC50) in assay [1] and in assay [2] were ≤ 500 nM and 0.5 to 1 µM, respectively.

Take `CNS(=O)(=O)N1C[C@@H]2C[C@@](O)(c3cc(Cl)cc4[nH]ncc34)C[C@@H]2C1` [Example 87, (3aR,5r,6aS)-5-(6-chloro-1H-indazol-4-yl)-5-hydroxy-N-methylhexahydrocyclopenta[c]pyrrole-2(1H)-sulfonamide]: the results for the IC50 in assay [1] and in assay [2] were ≤ 500 nM and 1 to 5 µM, respectively.

With `O=C(N[C@@H]1[C@H]2C=C(c3cc(Cl)cc4[nH]ncc34)C[C@H]21)C1CC1` (racemic) [Example 183, Racemic-N-((1S,5R,6S)-3-(6-chloro-1H-indazol-4-yl)bicyclo[3.1.0]hex-2-en-6-yl)cyclopropanecarboxamide], the IC50 in assay [1] was 1000 to 5000 nM; in assay [2], > 5 µM.

In the case of `O=C(C1CC1)N1C[C@@H]2C[C@@](O)(c3cc(Cl)cc4[nH]ncc34)C[C@@H]2C1` [Example 38, ((3aR,5r,6aS)-5-(6-chloro-1H-indazol-4-yl)-5-hydroxyhexahydrocyclopenta[c]pyrrol-2(1H)-yl)(cyclopropyl)methanone], the results for the IC50 in assay [1] and in assay [2] were ≤ 500 nM and > 5 µM, respectively.

Consider `O=C(c1ccccc1)N1C[C@@H]2C[C@@](O)(c3cc(Cl)cc4[nH]ncc34)C[C@@H]2C1` [Example 36, ((3aR,5r,6aS)-5-(6-chloro-1H-indazol-4-yl)-5-hydroxyhexahydrocyclopenta[c]pyrrol-2(1H)-yl)(phenyl)methanone], for which the IC50 in assay [1] was ≤ 500 nM; in assay [2] it was > 5 µM.

On to `CNS(=O)(=O)N[C@H]1[C@@H]2C[C@@](O)(c3cc(C(F)(F)F)cc4[nH]ncc34)C[C@@H]21` [Example 162, N′-methyl-N-((1R,3r,5S,6r)-3-hydroxy-3-(6-(trifluoromethyl)-1H-indazol-4-yl)bicyclo[3.1.0]hexan-6-yl)sulfuric diamide], for which the IC50 was ≤ 500 nM in assay [1] and ≤ 0.5 µM in assay [2].

On to `NC(=O)N[C@H]1[C@@H]2C[C@@](O)(c3cc(Cl)cc4[nH]ncc34)C[C@@H]21` [Example 135, 1-((1R,3r,5S,6r)-3-(6-chloro-1H-indazol-4-yl)-3-hydroxybicyclo[3.1.0]hexan-6-yl)urea], for which the IC50 is ≤ 500 nM in assay [1] and > 5 µM in assay [2].

Turning to `O=C(N[C@H]1[C@@H]2C[C@@](O)(c3cc(Cl)cc4[nH]ncc34)C[C@@H]21)c1cncc(Br)c1` [Example 170, 5-bromo-N-((1R,3r,5S,6r)-3-(6-chloro-1H-indazol-4-yl)-3-hydroxybicyclo[3.1.0]hexan-6-yl)nicotinamide], the IC50 in assay [1] is ≤ 500 nM; in assay [2], ≤ 0.5 µM.

`CS(=O)(=O)N[C@H]1[C@@H]2C[C@@](O)(c3cc(Cl)cc4cn[nH]c34)C[C@@H]21` [Example 109, N-((1R,3r,5S,6r)-3-(5-chloro-1H-indazol-7-yl)-3-hydroxybicyclo[3.1.0]hexan-6-yl)methanesulfonamide]: the figures for the IC50 in assay [1] and in assay [2] were 500 to 1000 nM and 1 to 5 µM, respectively.

Turning to `CC(=O)N1C[C@@H]2CN(c3c(C(F)(F)F)ccc4cncn34)C[C@@H]2C1(C)C` (racemic) [Example 47, Racemic-1-((3aS,6aR)-1,1-dimethyl-5-(6-(trifluoromethyl)imidazo[1,5-a]pyridin-5-yl)hexahydropyrrolo[3,4-c]pyrrol-2(1H)-yl)ethanone], the IC50 in assay [1] is > 5000 nM; in assay [2] it was > 5 µM.

With `O=S(=O)(N[C@H]1[C@@H]2C[C@@](O)(c3cc(Cl)cc4cn[nH]c34)C[C@@H]21)C1CC1` [Example 110, N-((1R,3r,5S,6r)-3-(5-chloro-1H-indazol-7-yl)-3-hydroxybicyclo[3.1.0]hexan-6-yl)cyclopropanesulfonamide], the IC50 in assay [1] lay within 1000 to 5000 nM; in assay [2] it was 1 to 5 µM.

Take `CS(=O)(=O)N1C[C@@H]2C[C@@](O)(c3cc(Cl)cn4cncc34)C[C@@H]2C1` [Example 52, (3aR,5r,6aS)-5-(6-chloroimidazo[1,5-a]pyridin-8-yl)-2-(methylsulfonyl)octahydrocyclopenta[c]pyrrol-5-ol]: the concentration for half-maximal inhibition (IC50) in assay [1] is ≤ 500 nM; in assay [2], 1 to 5 µM.

`CS(=O)(=O)N1C[C@H]2CC(C(O)c3cc(Cl)cc4[nH]ncc34)C[C@H]2C1` (stereo partly drawn) [Example 105, (6-chloro-1H-indazol-4-yl)((3aR,6aS)-2-(methylsulfonyl)octahydrocyclopenta[c]pyrrol-5-yl)methanol]: the IC50 is ≤ 500 nM in assay [1] and > 5 µM in assay [2].

In the case of `O=C(NC1CCCCC1)N[C@H]1[C@@H]2C[C@@](O)(c3cc(Cl)cc4[nH]ncc34)C[C@@H]21` [Example 126, 1-((1R,3r,5S,6r)-3-(6-chloro-1H-indazol-4-yl)-3-hydroxybicyclo[3.1.0]hexan-6-yl)-3-cyclohexylurea], the IC50 in assay [1] was ≤ 500 nM; in assay [2], > 5 µM.

On to `OCC1[C@H]2C[C@](O)(c3cc(Cl)cc4[nH]ncc34)C[C@@H]12` (stereo partly drawn) [Example 111, (1R,3r,5S)-3-(6-chloro-1H-indazol-4-yl)-6-(hydroxymethyl)bicyclo[3.1.0]hexan-3-ol], for which the half-maximal inhibitory concentration (IC50) in assay [1] is ≤ 500 nM; in assay [2], 1 to 5 µM.

`CC(=O)N1C[C@@H]2CN(c3cc(Cl)cn4cncc34)C[C@@H]2C1(C)C` (racemic) [Example 41, Racemic-1-((3aS,6aR)-5-(6-chloroimidazo[1,5-a]pyridin-8-yl)-1,1-dimethylhexahydropyrrolo[3,4-c]pyrrol-2(1H)-yl)ethanone]: the IC50 is 1000 to 5000 nM in assay [1] and > 5 µM in assay [2].

For `O=C(Nc1cccc(Cl)c1)N[C@H]1[C@@H]2C[C@@](O)(c3cc(Cl)cc4[nH]ncc34)C[C@@H]21` [Example 122, 1-((1R,3r,5S,6r)-3-(6-chloro-1H-indazol-4-yl)-3-hydroxybicyclo[3.1.0]hexan-6-yl)-3-(3-chlorophenyl)urea], the IC50 in assay [1] is 1000 to 5000 nM; in assay [2], 1 to 5 µM.

As for `O=S(=O)(NC1CC1)N[C@H]1[C@@H]2C[C@@](O)(c3cc(Cl)cc4[nH]ncc34)C[C@@H]21` [Example 160, N′-cyclopropyl-N-((1R,3r,5S,6r)-3-(6-chloro-1H-indazol-4-yl)-3-hydroxybicyclo[3.1.0]hexan-6-yl)sulfuric diamide], the IC50 in assay [1] is ≤ 500 nM; in assay [2] it was 1 to 5 µM.

Consider `CS(=O)(=O)N1C[C@H]2CC(C(O)c3cc(Cl)cc4cn[nH]c34)C[C@H]2C1` (stereo partly drawn) [Example 113, (5-chloro-1H-indazol-7-yl)((3aR,6aS)-2-(methylsulfonyl)octahydrocyclopenta[c]pyrrol-5-yl)methanol], for which the IC50 in assay [1] was 1000 to 5000 nM; in assay [2], 1 to 5 µM.
